These results are taken from patent publication US12509429B2, “Hydroxybenzamide derivatives and methods of use in treating diabetes” (THE BOARD OF REGENTS OF THE UNIVERSITY OF OKLAHOMA, priority 2022, dated 2025).

The structures appear in SMILES notation. Read-outs that look alike come from different tables or passages of the source.

Data set [1] deals with INS-1 cells. Description: Cell viability assay: protection of INS-1 cells from tunicamycin (Tm)-induced loss of viability (CellTiter-Glo, intracellular ATP). The conditions noted are these: for Emax / EC50: Rattus norvegicus; for Emax: % rescue from Tm (0.15 μg/mL)-induced reduction of INS-1 cell viability (intracellular ATP), Tm alone 0%, DMSO without Tm 100%, 72 h, read-out: Maximum % of Protection; for EC50: INS-1 cell viability, Tm 0.15 μg/mL, ten 2-fold serial titration points, GraphPad Prism. In kind it is cell-based, rat. The protocol:
INS-1 cells were resuspended in RPMI 1640 medium containing 10% FBS and seeded at 5×10^3 cells/well in a 384-well plate. After overnight 24 h incubation, compounds were added to the wells at the indicated concentration using a pin-transfer robot (PerkinElmer). Tm in RPMI 1640 medium containing 10% FBS was then added at a final concentration of 0.15 μg/mL. After 72 h, the medium was removed and 20 μL of CellTiter-Glo reagent (Promega) was added. Luminescence was measured 10 min later using a Synergy Neo2 plate reader (Biotek).
Hydroxy benzamide (HBA) derivatives were synthesized based on various scaffolds and evaluated for their viability of rat INS-1 β cells in the presence of tunicamycin (Tm), a potent ER stress inducer that inhibits N-linked glycosylation of proteins. The maximum activities and the concentrations that reach half-maximal activity (EC50) of the compounds were evaluated by the degree of increase in viability of INS-1 cells co-treated with the compounds in the presence of Tm compared with Tm treatment alone.

Data set [2] concerns INS-1 cells. The conditions noted are these: earlier work; protection of β-cell survival against ER stress; cited from earlier work.

Consider `CCc1ccc(C(=O)NCc2cccc(C(F)(F)F)c2)cc1` [Compound 3b, 4-Ethyl-N-(3-(trifluoromethyl)benzyl)benzamide], for which, in the data set with INS-1 cells [1] (INS-1 cells with Tm), the “β-cell protective activity (in words)” value was “poorer β-cell protective activity”. For the same compound, in the data set with INS-1 cells [1] (INS1), the Emax was 43% and the EC50 was found to be 4.4 µM.
Regarding `Cc1c(Cl)cccc1C(=O)NCc1cccc(C(F)(F)F)c1` [Compound 3a, 3-Chloro-2-methyl-N-(3-(trifluoromethyl)benzyl)benzamide], in the data set with INS-1 cells [1] (INS1), the Emax was found to be 83% and the EC50 turned out to be 10 µM.
Turning to `O=C(NCc1ccc(C(F)(F)F)cc1)c1ccc(O)cc1` [Compound 3h, 4-Hydroxy-N-(4-(trifluoromethyl)benzyl)benzamide], in the data set on INS-1 cells [1] (INS1), the Emax came out at 100% and the half-maximal effective concentration (EC50) stood at 0.27 µM.
For `O=C(NCc1ccc(C(F)(F)F)cc1)Nc1cccc(O)c1` [Compound 5a, 1-(3-Hydroxyphenyl)-3-(4-(trifluoromethyl)benzyl)urea], in the data set on INS-1 cells [1] (INS1), the Emax was 65% and the EC50 stood at 2.6 µM.
Turning to `O=C(NCc1ccc(C(F)(F)F)cc1)c1cccc(OCC2CCCCC2)c1` [Compound 3k, 3-(Cyclohexylmethoxy)-N-(4-(trifluoromethyl)benzyl)benzamide], in the data set with INS-1 cells [1] (INS1), the Emax stood at 100% and the EC50 was 0.72 µM.
As for `COc1cc(-c2ncc(-c3ccc(C(F)(F)F)cc3)[nH]2)ccc1O` [Compound 1b, 2-Methoxy-4-(5-(4-(trifluoromethyl)phenyl)-1H-imidazol-2-yl)phenol], the “β-cell protective activity (in words)” value with INS-1 cells [1] (INS-1 cells with Tm) is on record as “no improvement”. In the data set on INS-1 cells [1] (INS1), the Emax amounted to 7% and the concentration giving a half-maximal response (EC50) was determined as 0.26 µM.
For `O=C(Cc1cccc(O)c1)NCc1ccc(C(F)(F)F)cc1` [Compound 4a, 2-(3-Hydroxyphenyl)-N-(4-(trifluoromethyl)benzyl)acetamide], the Emax in the data set with INS-1 cells [1] (INS1, 72 h) was 32%. Besides, in the data set on INS-1 cells [1] (INS1), the concentration giving a half-maximal response (EC50) is 3.5 µM.
Consider `CC(C)c1ccc(CNC(=O)c2cccc(O)c2)cc1` [Compound 3o, 3-Hydroxy-N-(4-isopropylbenzyl)benzamide], for which, in the data set on INS-1 cells [1] (INS1), the Emax was determined as 82% and the 50% effective concentration (EC50) is 1.7 µM.
The matching figures for `O=C(NCc1cccc(C(F)(F)F)c1)c1ccc(O)c(O)c1` [Compound 3d, 3,4-Dihydroxy-N-(3-(trifluoromethyl)benzyl)benzamide]: 51% and 20.5 µM.
For `O=C(NCc1ccc(C(F)(F)F)cc1)c1cccc(OCC2CCNCC2)c1` [Compound 3l, 3-(Piperidin-4-ylmethoxy)-N-(4-(trifluoromethyl)benzyl)benzamide], in the data set with INS-1 cells [1] (INS1), the Emax was found to be 81% and the concentration giving a half-maximal response (EC50) was found to be 2.1 µM.
As for `COc1cc(CNC(=O)c2ccc(O)c(OC)c2)ccc1O` [Compound 3t, 4-Hydroxy-N-(4-hydroxy-3-methoxybenzyl)-3-methoxybenzamide], the “β-cell protective activity (in words)” value in the data set with INS-1 cells [1] (INS-1 cells with Tm) is reported as “equally poor β-cell protective activity”. For the same compound, in the data set with INS-1 cells [1] (INS1), the Emax is 55% and the 50% effective concentration (EC50) was 29.1 µM.
For `COc1ccc(-c2ncc(-c3ccc(C(F)(F)F)cc3)[nH]2)cc1` [Compound 1c, 2-(4-Methoxyphenyl)-5-(4-(trifluoromethyl)phenyl)-1H-imidazole], in that order: “no improvement”, 17% and 0.21 µM.
Consider `COc1ccc(CNC(=O)c2cccc(O)c2)cc1` [Compound 3r, 3-Hydroxy-N-(4-methoxybenzyl)benzamide], for which, in the data set with INS-1 cells [1] (INS1), the Emax came to 65% and the EC50 is 21.3 µM.
The matching figures for `O=C(NCc1cccc(O)c1)c1cccc(O)c1` [Compound 3q, 3-Hydroxy-N-(3-hydroxybenzyl)benzamide]: 22% and 18.3 µM.
For `CN(C)c1ccc(CNC(=O)c2cccc(O)c2)cc1` [Compound 3p, N-(4-(Dimethylamino)benzyl)-3-hydroxybenzamide], in that order: 43% and 7.1 µM.
For `COc1cccc(C(=O)NCc2ccc(C(F)(F)F)cc2)c1` [Compound 3j, 3-Methoxy-N-(4-(trifluoromethyl)benzyl)benzamide], in that order: 71% and 25 µM.
Take `O=C(NCc1ccc(C(F)(F)F)cc1)c1cccc(O)c1O` [Compound 3g, 2,3-Dihydroxy-N-(4-(trifluoromethyl)benzyl)benzamide]: in the data set on INS-1 cells [1] (INS1), the Emax worked out at 100% and the concentration for a half-maximal effect (EC50) came to 3.1 µM.
On to `O=C(NCc1ccc(C(F)(F)F)cc1)c1ccc(O)c(O)c1` [Compound 3f, 3,4-Dihydroxy-N-(4-(trifluoromethyl)benzyl)benzamide], for which, in the data set on INS-1 cells [1] (INS1), the Emax amounted to 100% and the EC50 amounted to 2.2 µM. Moreover, the Concentration at which maximal protection is reached in the data set on INS-1 cells [1] (text of b115, unit printed as PM, unit of the source corrected) came out at 10 µM.
For `COc1cc(CNC(=O)c2cccc(O)c2)ccc1O` [Compound 3s, 3-Hydroxy-N-(4-hydroxy-3-methoxybenzyl)benzamide], in the data set with INS-1 cells [1] (INS1), the Emax was determined as 57% and the EC50 stood at 28.7 µM.
Take `O=C(NCc1cccc(C(F)(F)F)c1)c1cccc(O)c1` [Compound 3c, 3-Hydroxy-N-(3-(trifluoromethyl)benzyl)benzamide]: in the data set on INS-1 cells [1] (INS1), the Emax came to 37% and the concentration for a half-maximal effect (EC50) worked out at 9.9 µM.
For `COc1cc(C(=O)NCc2cccc(C(F)(F)F)c2)ccc1O` [Compound 3e, 4-Hydroxy-3-methoxy-N-(3-(trifluoromethyl)benzyl)benzamide], in the data set with INS-1 cells [1] (INS1), the Emax was determined as 100% and the 50% effective concentration (EC50) stood at 3.1 µM.
For `COc1ccc(CNc2ncc(-c3ccccc3OC)[nH]2)cc1` [Compound 2b, N-(4-methoxybenzyl)-5-(2-methoxyphenyl)-1H-imidazol-2-amine], the “β-cell protective activity (in words)” value in the data set on INS-1 cells [1] (INS-1 cells with Tm) was “reduced the protecting activity”. In the data set with INS-1 cells [1] (INS1), the Emax came to 9% and the 50% effective concentration (EC50) came to 0.021 µM.
`COc1ccc(CNc2ncc(-c3ccc(C(F)(F)F)cc3)[nH]2)cc1` [Compound 2a, N-(4-methoxybenzyl)-5-(4-(trifluoromethyl)phenyl)-1H-imidazol-2-amine]: in the data set on INS-1 cells [1] (INS1), the Emax is 18% and the EC50 was determined as 0.05 µM.
Regarding `O=C(NCc1ccc(C(F)(F)F)cc1)c1cccc(OCc2cccc(C(F)(F)F)c2)c1` [Compound 3n, N-(4-(Trifluoromethyl)benzyl)-3-((3-(trifluoromethyl)benzyl)oxy)benzamide], in the data set on INS-1 cells [1] (INS-1 cells with Tm), the “β-cell protective activity (in words)” value is “markedly diminished activity”. For the same compound, in the data set on INS-1 cells [1] (INS1), the Emax was 58% and the concentration giving a half-maximal response (EC50) came out at 6.3 µM.
In the case of `COc1cccc(COc2cccc(C(=O)NCc3ccc(C(F)(F)F)cc3)c2)c1` [Compound 3m, 3-((3-Methoxybenzyl)oxy)-N-(4-(trifluoromethyl)benzyl)benzamide], in the data set with INS-1 cells [1] (INS1), the Emax amounted to 81% and the EC50 came to 4.1 µM.
As for `Oc1cccc(-c2ncc(-c3ccc(C(F)(F)F)cc3)[nH]2)c1O` [Compound 1a, 3-(5-(4-(Trifluoromethyl)phenyl)-1H-imidazol-2-yl)benzene-1,2-diol], in the data set with INS-1 cells [1] (INS-1 cells with Tm), the “Toxicity at rising compound concentration (in words)” value is given as “became toxic when the compound concentration arose” and the “β-cell protective activity (in words)” value is reported as “some β-cell protective activity at sub-micro molar concentrations”. Further, in the data set on INS-1 cells [1] (INS1), the Emax turned out to be 14% and the concentration giving a half-maximal response (EC50) turned out to be 0.26 µM.
Consider `COc1cccc(NC(=O)NCc2ccc(C(F)(F)F)cc2)c1` [Compound 5b, 1-(3-Methoxyphenyl)-3-(4-(trifluoromethyl)benzyl)urea], for which, in the data set with INS-1 cells [1] (INS1), the Emax came to 94% and the EC50 came out at 1.6 µM.
Consider `Cc1ccc(C)c(NC(=O)c2nnn(-c3cccc(Cl)c3C)c2C)c1` [Compound 1, 1-(3-chloro-2-methylphenyl)-N-(2,5-dimethylphenyl)-5-methyl-1H-1,2,3-triazole-4-carboxamide, reference compound], for which, in the data set with INS-1 cells [1] (INS1), the Emax stood at 87% and the concentration for a half-maximal effect (EC50) is 2.8 µM. Moreover, the maximal activity with INS-1 cells [2] was 87%.
